Assay results from the supplement of paper PMC10307832.

What was measured:
Experiment in all cases: relative viability (nuclei count vs DMSO), 5 days (fraction); higher = more cells survive
AZ628 + Phenformin = compound: CC1=C(C=C(C=C1)NC(=O)C2=CC(=CC=C2)C(C)(C)C#N)NC3=CC4=C(C=C3)N=CN(C4=O)C [AZ628] + N=C(N)NC(=N)NCCc1ccccc1 [Phenformin] (partner 250 µM)
Method in brief: (§1)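 Nuclei were stained with Hoechst during a one-step fixation (final 0.05% Triton X-100, 1% formaldehyde, 1 ug/ml Hoechst) carried out 5 days after dosing, then counted on 4× images. The cells, lung cancer lines in 1536-well plates, had been dosed by pin tool the day after seeding with one drug alone or a fixed anchor-drug dose plus five library-drug doses (not always all listed) in √10 steps. Relative viability is the nuclei count in treated wells divided by that in vehicle wells, and each value is the median of duplicate plates.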

AZ628 + Linsitinib = compound: CC1=C(C=C(C=C1)NC(=O)C2=CC(=CC=C2)C(C)(C)C#N)NC3=CC4=C(C=C3)N=CN(C4=O)C [AZ628] + C[C@]1(O)C[C@@H](c2nc(-c3ccc4ccc(-c5ccccc5)nc4c3)c3c(N)nccn32)C1 [Linsitinib] (partner 1 µM)
Method in brief: as §1

QS11 + Olaparib = compound: C1CC2=C(C1)C=C(C=C2)OC3=NC(=C4C(=N3)N(C=N4)CC5=CC=C(C=C5)C6=CC=CC=C6)N[C@@H](CC7=CC=CC=C7)CO [QS11] + O=C(c1cc(Cc2n[nH]c(=O)c3ccccc23)ccc1F)N1CCN(C(=O)C2CC2)CC1 [Olaparib] (partner 8 µM)
Method in brief: as §1

QS11 + Tozasertib = compound: C1CC2=C(C1)C=C(C=C2)OC3=NC(=C4C(=N3)N(C=N4)CC5=CC=C(C=C5)C6=CC=CC=C6)N[C@@H](CC7=CC=CC=C7)CO [QS11] + Cc1cc(Nc2cc(N3CCN(C)CC3)nc(Sc3ccc(NC(=O)C4CC4)cc3)n2)n[nH]1 [Tozasertib] (partner 0.1 µM)
Method in brief: as §1

| Cell Line | relative viability (AZ628 + Phenformin; first compound 0.08 µM) | relative viability (AZ628 + Phenformin; first compound 0.253 µM) | relative viability (AZ628 + Phenformin; first compound 0.8 µM) | relative viability (AZ628 + Phenformin; first compound 2.53 µM) | relative viability (AZ628 + Phenformin; first compound 8 µM) | relative viability (AZ628 + Linsitinib; first compound 0.08 µM) | relative viability (AZ628 + Linsitinib; first compound 0.253 µM) | relative viability (AZ628 + Linsitinib; first compound 0.8 µM) | relative viability (AZ628 + Linsitinib; first compound 2.53 µM) | relative viability (AZ628 + Linsitinib; first compound 8 µM) | relative viability (QS11 + Olaparib; first compound 0.08 µM) | relative viability (QS11 + Olaparib; first compound 0.253 µM) | relative viability (QS11 + Olaparib; first compound 0.8 µM) | relative viability (QS11 + Olaparib; first compound 2.53 µM) | relative viability (QS11 + Olaparib; first compound 8 µM) | relative viability (QS11 + Tozasertib; first compound 0.08 µM) | relative viability (QS11 + Tozasertib; first compound 0.253 µM) | relative viability (QS11 + Tozasertib; first compound 0.8 µM) | relative viability (QS11 + Tozasertib; first compound 2.53 µM) | relative viability (QS11 + Tozasertib; first compound 8 µM) |
| --- | --- | --- | --- | --- | --- | --- | --- | --- | --- | --- | --- | --- | --- | --- | --- | --- | --- | --- | --- | --- |
| CAL-12T | 0.553 | 0.492 | 0.335 | 0.414 | 0.336 | 0.788 | 0.677 | 0.585 | 0.679 | 0.357 | 0.722 | 0.693 | 0.67 | 0.727 | 0.603 | 0.247 | 0.268 | 0.299 | 0.204 | 0.227 |
| NCI-H1648 |  |  |  |  |  |  |  |  |  |  | 0.812 | 0.413 | 0.727 | 0.77 | 1.09 |  | 0.577 |  | 0.396 | 0.642 |
| NCI-H358 | 0.32 | 0.208 | 0.216 | 0.222 | 0.216 | 0.644 | 0.622 | 0.66 | 0.582 | 0.398 | 0.635 | 0.62 | 0.566 | 0.633 | 0.618 | 0.099 | 0.106 | 0.108 | 0.101 | 0.109 |
| NCI-H3122 | 0.366 | 0.288 | 0.305 | 0.31 | 0.289 | 0.931 | 0.83 | 0.686 | 0.701 | 0.388 | 0.636 | 0.694 |  | 0.601 | 0.637 | 0.45 | 0.496 |  | 0.374 | 0.201 |
| NCI-H2347 | 0.267 | 0.392 | 0.493 | 0.324 | 0.205 | 0.719 | 0.928 | 0.741 | 0.792 | 0.639 | 0.55 | 0.541 | 0.544 | 0.519 | 0.683 | 0.434 | 0.523 | 0.51 | 0.436 | 0.572 |
| HCC-15 | 0.479 | 0.4 | 0.366 | 0.417 | 0.224 | 0.918 | 0.799 | 0.704 | 0.695 | 0.414 | 0.668 | 0.79 | 0.61 | 0.735 | 0.634 | 0.363 | 0.523 | 0.385 | 0.257 | 0.312 |
| HCC-366 | 0.585 | 0.572 | 0.554 | 0.598 | 0.499 | 0.551 | 0.454 | 0.426 | 0.543 | 0.114 | 0.41 | 0.467 |  | 0.452 | 0.212 | 0.133 | 0.0935 |  | 0.0603 | 0.0521 |
| BEN | 0.265 | 0.331 | 0.268 | 0.27 | 0.231 | 1.1 | 0.864 | 0.793 | 0.903 | 0.772 | 0.667 | 1.1 | 1.03 | 1.01 | 0.992 | 0.441 | 0.529 | 0.504 | 0.485 | 0.486 |
| NCI-H1993 | 0.46 | 0.562 | 0.545 | 0.523 | 0.537 | 0.761 | 0.59 | 0.716 | 0.824 | 0.711 | 1.06 | 1.01 | 1.22 | 1.35 | 1.05 | 0.563 | 0.573 | 0.605 | 0.669 | 0.616 |
| NCI-H1703 |  |  |  |  |  | 0.404 | 0.328 | 0.219 | 0.209 | 0.201 | 0.411 | 0.363 | 0.597 | 0.501 | 0.551 |  |  |  |  |  |
| Calu-6 |  |  |  |  |  | 1.05 | 0.859 | 0.401 | 0.673 | 0.153 | 0.626 | 0.613 | 0.603 | 0.638 | 0.59 |  |  |  |  |  |
| NCI-H1650 | 0.537 | 0.403 | 0.33 | 0.333 | 0.335 |  |  |  |  |  | 0.825 | 0.816 | 0.719 | 0.686 | 0.898 | 0.244 | 0.368 | 0.436 | 0.358 | 0.402 |
| IA-LM |  |  |  |  |  | 0.761 | 0.711 | 0.509 | 0.353 | 0.252 | 1 | 0.924 | 0.706 | 0.741 | 0.78 |  |  |  |  |  |
| A549 | 0.19 | 0.161 | 0.136 | 0.135 | 0.141 | 0.571 | 0.542 | 0.469 | 0.606 | 0.39 | 0.197 | 0.339 | 0.37 | 0.284 | 0.574 |  |  |  |  |  |
| EBC-1 |  |  |  |  |  | 0.87 | 0.843 | 0.999 | 0.773 | 0.885 | 0.758 | 0.813 | 0.675 | 0.644 | 0.68 |  |  |  |  |  |
| NCI-H1623 | 0.6 | 0.524 | 0.382 | 0.505 | 0.437 |  |  |  |  |  |  |  |  |  |  | 0.449 | 0.546 | 0.427 | 0.466 | 0.434 |
| NCI-H522 | 0.628 | 0.516 | 0.617 | 0.542 | 0.663 |  |  |  |  |  | 0.603 | 0.755 | 0.665 | 0.588 | 0.772 | 0.494 | 0.616 | 0.47 | 0.627 | 1.58 |
| NCI-H2170 | 0.447 | 0.398 | 0.402 | 0.41 | 0.381 |  |  |  |  |  | 0.549 | 0.632 | 0.539 | 0.596 | 0.722 | 0.803 | 0.662 | 0.671 | 0.742 | 0.721 |
| NCI-H1299 |  |  |  |  |  | 0.987 | 1.04 | 0.993 | 0.91 | 0.579 | 0.955 | 1.03 | 0.848 | 0.928 | 0.793 |  |  |  |  |  |
| NCI-H1563 | 0.694 | 0.661 | 0.672 | 0.654 | 0.679 | 1.3 | 1.18 | 1.23 | 1.29 | 1.29 |  |  |  |  |  |  |  |  |  |  |
| SW 900 | 0.536 | 0.691 | 0.561 | 0.422 | 0.399 |  |  |  |  |  | 0.941 | 1.03 | 0.615 | 0.739 | 0.511 | 0.573 | 0.479 | 0.521 | 0.408 | 0.296 |
